Measurements reported in ChEMBL document CHEMBL5247653, “Discovery of Clinical Candidate ACT-777991, a Potent CXCR3 Antagonist for Antigen-Driven and Inflammatory Pathologies” (J Med Chem, 2023).
Activity calls are given as the source filed them. No cut-off for these calls is given here.

Assays:
[1] = molecular target: Solute carrier organic anion transporter family member 1B3 (Homo sapiens, UniProt Q9NPD5); test: Inhibition of human OATP1B3; type: ADME
[2] = system: Mus musculus; test: Antiinflammatory activity against LPS-induced DBA/1 mouse model assessed as reduction in CXCR3+ CD8+ T cells infiltration into BAL at 0.02 microg/g, po preincubated for 3 days followed by LPS stimulation for 30 mins and measured after 3 days by flow cytometry; type: functional, T-cell; design: scale not given: the % may be the effect or the level left; settings: dose 0.02 µg/g, time 6 day
[3] = Metabolic stability in rat hepatocyte assessed as M4 metabolite formation at 1 uM and measured upto 15 mins in presence of NADPH regenerating system by LC-MS/MS analysis; type: ADME, cell-based; settings: hepatocytes, 0.25 h
[4] = molecular target: Cytochrome P450 2D6 (Homo sapiens, UniProt P10635); test: Competitive inhibition of CYP2D6 (unknown origin); type: ADME
[5] = Induction of CYP3A4 mRNA upregulation in human hepatocytes upto 10 uM; type: ADME, cell-based, Hepatocyte
[6] = In vivo inhibition of hERG in dog assessed as increase in QTc interval at 24 ug/ml, iv; type: toxicity, organism-based, Canis lupus familiaris; settings: at 24 µg/mL
[7] = Lipophilicity, log D of compound; type: physicochemical; settings: octanol/water
[8] = molecular target: T1, C-X-C chemokine receptor type 3 (Homo sapiens) (UniProt P49682); test: Binding affinity to CXCR3 (unknown origin) at 10 uM by radioligand binding assay; settings: filed as antagonist
T1 sequence (whole entry): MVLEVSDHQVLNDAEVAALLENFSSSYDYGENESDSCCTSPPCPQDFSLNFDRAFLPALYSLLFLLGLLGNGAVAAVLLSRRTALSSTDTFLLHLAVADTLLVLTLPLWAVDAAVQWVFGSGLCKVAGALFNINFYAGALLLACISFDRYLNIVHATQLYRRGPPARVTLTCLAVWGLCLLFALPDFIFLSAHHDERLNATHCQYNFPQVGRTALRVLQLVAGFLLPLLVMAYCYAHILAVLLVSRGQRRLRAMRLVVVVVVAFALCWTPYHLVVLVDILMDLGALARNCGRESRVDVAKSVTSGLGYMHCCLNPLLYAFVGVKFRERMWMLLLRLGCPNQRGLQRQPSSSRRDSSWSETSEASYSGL

[9] = molecular target: T2, C-X-C chemokine receptor type 3 (Mus musculus) (UniProt O88410); test: In vivo antagonist activity at CXCR3 in LPS-induced DBA/1 mouse model assessed as reduction in mouse CXCL10-mediated chemotaxis in CD8+ T cells at 0.006 microg/g, po bid preincubated for 3 days followed by LPS stimulation for 30 mins and measured after 3 days by flow cytometry; type: functional, organism-based; design: scale not given: the % may be the effect or the level left; settings: T-cell, dose 0.006 µg/g, time 6.0 day
T2 sequence (whole entry): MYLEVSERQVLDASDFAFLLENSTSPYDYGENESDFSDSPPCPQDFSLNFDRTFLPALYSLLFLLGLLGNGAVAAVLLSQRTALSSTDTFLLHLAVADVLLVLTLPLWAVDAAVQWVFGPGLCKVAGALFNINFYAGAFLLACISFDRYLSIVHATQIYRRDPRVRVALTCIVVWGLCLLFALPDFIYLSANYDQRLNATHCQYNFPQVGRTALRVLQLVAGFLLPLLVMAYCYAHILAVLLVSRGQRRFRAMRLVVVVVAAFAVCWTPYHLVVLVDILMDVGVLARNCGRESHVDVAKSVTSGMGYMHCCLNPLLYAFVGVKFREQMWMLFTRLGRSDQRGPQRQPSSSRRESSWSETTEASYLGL

[10] = Metabolic stability in human liver microsomes assessed as M3 metabolite formation at 1 uM and measured upto 15 mins in presence of NADPH regenerating system by LC-MS/MS analysis; type: ADME, Microsome; settings: 0.25 h
[11] = AUC (0 to last) in Cynomolgus monkey at 1.0 mg/kg,iv or 1.25 mg/kg, po; type: ADME, organism-based, Macaca fascicularis; design: dose 1 mg/kg, route iv; settings: in vivo
[12] = molecular target: Cytochrome P450 3A4 (Homo sapiens, UniProt P08684); test: Competitive inhibition of CYP3A4 (unknown origin); type: ADME
[13] = Cmax in Cynomolgus monkey at 1.0 mg/kg,iv or 1.25 mg/kg, po; type: ADME, organism-based, Macaca fascicularis; design: dose 1 mg/kg, route iv; settings: in vivo
[14] = molecular target: T3, C-X-C chemokine receptor type 3 (Mus musculus, UniProt O88410); test: Antagonist activity at mouse CXCR3 expressed in CHO-K1 cells assessed as reduction in CXCL11 induced calcium flux by FLIPR method; type: cell-based
T3 sequence (O88410 whole entry): T2 sequence (whole entry)

[15] = Unbound clearance in Wistar rat plasma at 0.5 mg/kg, iv; type: ADME, organism-based; settings: in vivo
[16] = Oral bioavailability in Beagle dog at 2.5 mg/kg; type: ADME, organism-based, Canis lupus familiaris; settings: in vivo
[17] = Clearance in Beagle dog at 2.5 mg/kg,iv or 2.5 mg/kg, po; type: ADME, organism-based, Canis lupus familiaris; settings: in vivo
[18] = Total clearance in Wistar rat plasma at 0.5 mg/kg, iv; type: ADME, organism-based
[19] = Protein binding in rat plasma assessed as fraction unbound at 20 ug/ml using 14C-labeled ligand by rapid equilibrium dialysis; type: ADME, cell-free; settings: at 20 µg/mL
[20] = Metabolic stability in rat hepatocyte assessed as M1 metabolite formation at 1 uM and measured upto 15 mins in presence of NADPH regenerating system by LC-MS/MS analysis; type: ADME, cell-based; settings: hepatocytes, 0.25 h
[21] = molecular target: C-X-C chemokine receptor type 6 (Homo sapiens) (UniProt O00574); test: Binding affinity to CXCR6 (unknown origin) at 10 uM by radioligand binding assay
[22] = Protein binding in rat plasma assessed as fraction unbound at 1 uM incubated for 6 hrs by rapid equilibrium dialysis based LC-MS/MS analysis; type: ADME, cell-free
[23] = Metabolic stability in dog hepatocyte assessed as M4 metabolite formation at 1 uM and measured upto 15 mins in presence of NADPH regenerating system by LC-MS/MS analysis; type: ADME, cell-based, Canis lupus familiaris; settings: hepatocytes, 0.25 h
[24] = Metabolic stability in human liver microsomes assessed as intrinsic clearance at 1 uM and measured upto 15 mins in presence of NADPH regenerating system by LC-MS/MS analysis; type: ADME, Microsome; settings: read-out: CLH
[25] = In vivo inhibition of hERG in iv dosed dog assessed as change in QRS interval; type: toxicity, organism-based, Canis lupus familiaris
[26] = system: NIH3T3; test: Phototoxicity in BALB/c mouse 3T3 cells upto 100 ug/ml in presence of irradiation; type: toxicity, cell-based; settings: dose < 100 µg/ml
[27] = Half life in Beagle dog at 2.5 mg/kg,iv or 2.5 mg/kg, po; type: ADME, organism-based, Canis lupus familiaris; settings: in vivo
[28] = molecular target: T4, C-X-C chemokine receptor type 3 (Homo sapiens, UniProt P49682); test: Binding affinity to human CXCR3 expressed in CHO-K1 cell membrane assessed as dissociation constant using tritium-labeled ligand by […] assay; type: cell membranes
T4 sequence (P49682 whole entry): T1 sequence (whole entry)

[29] = Protein binding in human plasma assessed as fraction unbound at 20 ug/ml using 14C-labeled ligand by rapid equilibrium dialysis; type: ADME, cell-free; settings: at 20 µg/mL
[30] = Dissociation constant, pKa of compound; type: physicochemical
[31] = Volume of distribution at steady state in Beagle dog at 2.5 mg/kg,iv or 2.5 mg/kg, po; type: ADME, organism-based, Canis lupus familiaris; settings: in vivo, read-out: Vdss

Sequence of Solute carrier organic anion transporter family member 1B3 (Q9NPD5 whole entry): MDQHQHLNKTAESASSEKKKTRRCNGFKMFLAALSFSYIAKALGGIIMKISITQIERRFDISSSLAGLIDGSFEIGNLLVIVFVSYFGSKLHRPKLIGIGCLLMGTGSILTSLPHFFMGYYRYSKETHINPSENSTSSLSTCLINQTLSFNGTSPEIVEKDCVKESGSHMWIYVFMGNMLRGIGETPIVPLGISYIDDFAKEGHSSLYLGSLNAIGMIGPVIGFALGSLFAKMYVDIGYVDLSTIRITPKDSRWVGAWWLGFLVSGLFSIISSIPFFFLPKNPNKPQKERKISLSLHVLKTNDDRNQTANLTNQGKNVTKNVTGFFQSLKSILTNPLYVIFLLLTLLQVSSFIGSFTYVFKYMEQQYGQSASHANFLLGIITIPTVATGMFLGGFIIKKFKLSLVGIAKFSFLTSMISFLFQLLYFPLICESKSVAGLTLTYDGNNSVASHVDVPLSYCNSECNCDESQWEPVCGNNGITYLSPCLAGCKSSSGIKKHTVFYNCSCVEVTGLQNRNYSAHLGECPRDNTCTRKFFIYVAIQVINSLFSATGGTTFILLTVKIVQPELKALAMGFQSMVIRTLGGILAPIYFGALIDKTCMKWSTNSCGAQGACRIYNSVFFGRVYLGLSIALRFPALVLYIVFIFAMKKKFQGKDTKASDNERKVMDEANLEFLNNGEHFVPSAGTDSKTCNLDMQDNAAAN
Sequence of Cytochrome P450 2D6 (P10635 whole entry): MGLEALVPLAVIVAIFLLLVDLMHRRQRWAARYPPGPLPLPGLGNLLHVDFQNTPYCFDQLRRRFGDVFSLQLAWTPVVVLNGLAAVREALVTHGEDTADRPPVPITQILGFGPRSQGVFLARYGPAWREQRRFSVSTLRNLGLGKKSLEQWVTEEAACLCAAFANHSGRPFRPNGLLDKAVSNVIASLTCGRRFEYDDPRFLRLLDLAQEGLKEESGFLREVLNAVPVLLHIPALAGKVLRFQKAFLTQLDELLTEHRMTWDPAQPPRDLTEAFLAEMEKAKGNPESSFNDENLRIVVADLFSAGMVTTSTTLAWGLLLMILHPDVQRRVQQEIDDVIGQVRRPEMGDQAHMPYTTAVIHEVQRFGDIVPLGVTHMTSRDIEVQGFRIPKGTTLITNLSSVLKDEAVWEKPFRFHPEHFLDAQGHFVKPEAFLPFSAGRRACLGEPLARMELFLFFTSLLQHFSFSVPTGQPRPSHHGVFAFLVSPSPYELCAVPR
Sequence of Cytochrome P450 3A4 (P08684 whole entry): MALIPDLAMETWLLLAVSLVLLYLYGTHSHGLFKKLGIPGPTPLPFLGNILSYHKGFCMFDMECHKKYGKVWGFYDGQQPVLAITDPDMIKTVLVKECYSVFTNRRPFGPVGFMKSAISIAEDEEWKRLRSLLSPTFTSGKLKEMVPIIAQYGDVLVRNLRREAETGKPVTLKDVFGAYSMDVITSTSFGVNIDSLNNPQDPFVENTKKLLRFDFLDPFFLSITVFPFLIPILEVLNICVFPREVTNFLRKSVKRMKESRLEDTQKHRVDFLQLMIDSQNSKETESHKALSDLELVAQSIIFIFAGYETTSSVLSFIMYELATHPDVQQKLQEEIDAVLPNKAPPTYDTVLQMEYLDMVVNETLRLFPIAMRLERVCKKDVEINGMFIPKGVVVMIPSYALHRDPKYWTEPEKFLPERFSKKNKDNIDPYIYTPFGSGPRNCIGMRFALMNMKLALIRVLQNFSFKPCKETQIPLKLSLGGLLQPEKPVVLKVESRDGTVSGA
Sequence of C-X-C chemokine receptor type 6 (Homo sapiens) (O00574 whole entry, looked up): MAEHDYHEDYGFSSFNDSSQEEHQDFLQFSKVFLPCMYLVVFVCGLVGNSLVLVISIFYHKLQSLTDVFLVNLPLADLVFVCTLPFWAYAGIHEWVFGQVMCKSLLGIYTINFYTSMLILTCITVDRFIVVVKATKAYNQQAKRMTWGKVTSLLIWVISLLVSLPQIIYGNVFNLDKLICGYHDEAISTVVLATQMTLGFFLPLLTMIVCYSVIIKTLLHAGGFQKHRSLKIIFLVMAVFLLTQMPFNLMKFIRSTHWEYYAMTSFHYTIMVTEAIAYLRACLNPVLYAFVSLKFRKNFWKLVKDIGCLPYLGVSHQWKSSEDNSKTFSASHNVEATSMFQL

Structure (SMILES): Cc1ncn(CC(=O)N2CCN(c3sc(C(F)(F)F)nc3-c3cnc(C(F)(F)F)nc3)C[C@H]2CCO)n1
- inhibition (INH) [1]: Not Active
- Activity [2]: 70%
- Stability [3]: Unstable
- IC50 [4]: > 50000 nM
- Activity [5]: Not Active
- inhibition (INH) [6]: Toxic
- logD [7]: 2.3
- Activity [8]: Active
- Activity [9]: 35%
- Stability [10]: Unstable
- AUC(0-t) [11]: 3610 ng·h/mL
- IC50 [12]: > 50000 nM
- Cmax [13]: 735 ng/mL
- IC50 [14]: 4.4 nM
- CL free [15]: 156 mL/min/kg
- bioavailability [16]: 89%
- clearance [17]: 9.5 mL/min/kg
- clearance [18]: 14 mL/min/kg
- fraction unbound at 20 ug/ml [19]: 0.12
- Stability [20]: Unstable
- Activity [21]: inactive
- fraction unbound at 6 h, 1 µM [22]: 0.09
- Stability [23]: Unstable
- microsomal CLint at 1 µM [24]: < 10 µL/min/mg
- inhibition (INH) [25]: Non-Toxic
- Activity [26]: Non-Toxic
- half-life [27]: 5.3 h
- Kd [28]: 4.6 nM
- fraction unbound at 20 ug/ml [29]: 0.4
- pKa [30]: 2.2
- Vd [31]: 1.5 L/kg
